Assay results as given in patent US5843958A, “Arylpyrazoles as leukotriene inhibitors” (Ortho Pharmaceutical Corporation, priority 1997, dated 1998).

What was measured:
[1] = biological target: T1, 5-lipoxygenase (Rattus norvegicus, UniProt P12527); assay: inhibition of 5-HETE production in broken RBL-1 cells (isolated enzyme); type: biochemical; conditions: Table A, broken RBL-1 cell supernatant; for inhibition at 3 µM: read-out: Isolated Enzyme % Inhib.; for inhibition at 3 µM / Isolated Enzyme % Inhib.: 3 μM
T1 construct: The pellet was discarded and the supernatant was saved as the source of enzymes; endogenous in cells; host or cells: RBL-1 (rat basophilic leukemia) cells, homogenate supernatant
T1 sequence (P12527 1-673): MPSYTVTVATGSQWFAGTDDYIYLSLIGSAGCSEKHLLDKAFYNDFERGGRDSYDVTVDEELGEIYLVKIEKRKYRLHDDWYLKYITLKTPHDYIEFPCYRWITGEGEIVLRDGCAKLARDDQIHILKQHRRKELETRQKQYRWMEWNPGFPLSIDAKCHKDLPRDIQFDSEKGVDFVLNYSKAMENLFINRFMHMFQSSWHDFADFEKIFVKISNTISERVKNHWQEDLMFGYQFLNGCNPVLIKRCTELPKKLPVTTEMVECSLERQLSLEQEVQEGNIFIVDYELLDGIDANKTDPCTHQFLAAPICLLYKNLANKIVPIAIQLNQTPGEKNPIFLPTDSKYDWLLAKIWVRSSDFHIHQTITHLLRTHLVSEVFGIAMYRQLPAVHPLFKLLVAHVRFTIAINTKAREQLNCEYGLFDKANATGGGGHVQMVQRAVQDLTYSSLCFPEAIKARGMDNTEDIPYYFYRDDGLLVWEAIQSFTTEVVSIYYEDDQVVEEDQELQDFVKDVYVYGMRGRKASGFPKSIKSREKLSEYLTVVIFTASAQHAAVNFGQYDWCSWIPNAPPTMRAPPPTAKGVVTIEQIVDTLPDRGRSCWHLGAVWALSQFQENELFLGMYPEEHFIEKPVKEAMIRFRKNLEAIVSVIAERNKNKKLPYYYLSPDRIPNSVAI
Description: (§1) The compounds of the invention were evaluated for their ability to inhibit the production of the arachidonic acid product 5-HETE in broken and whole cell models. Since this is the first step of leukotriene biosynthesis, a reduction in the production of 5-HETE is directly attributable to inhibition of 5-lipoxygenase, where the standard concentration is 3.0 μM. If the IC50 of the whole cell assay is smaller than the IC50 of the broken cell model, it is an indication that the compounds are inhibiting the cooperation of FLAP and 5-lipoxygenase.
Rat basophilic leukemia cells (RBL-1; 5×10^7 viable cells/mL) were disrupted by homogenization on ice (four 20 sec bursts) with a Brinkman polytron. Complete cell breakage was verified microscopically. The homogenate was then centrifuged at 9,220×g for 48 minutes at 4° C. The pellet was discarded and the supernatant was saved as the source of enzymes. The supernatant was pre-incubated for five minutes at 37° C. in the presence of 2 mM of CaCl2 and compound or vehicle (1% DMSO). The conversion of AA into products by CO and LO was initiated by adding 10 μL (50 μCi) of 1-^14 C-AA to each tube and incubated at 37° C. for 20 minutes. The reaction was stopped by adjusting the pH of each sample to 3 to 3.5 with 2M formic acid. Samples were extracted with three volumes of chloroform to isolate the products of 5-LO formed during the reaction. Fractions were dried under nitrogen, then resuspended in 40 μL of chloroform and spotted onto silica gel HL plates. The plates were developed in A-9 solvent. The dried plates were analyzed using a Bioscan Imaging TLC scanner to determine the percentage of radiolabelled AA converted to 5-HETE (LO product) in each sample. The percentage of inhibition was calculated by:
[1-(5-HETE test)]/5-HETE control×100=% inhibition
The IC50 was determined using a curve fit in Cricket Graph (Computer Associated), which provided the equation of the regressed line used in the calculation.

[2] = test system: 5-LO; assay: inhibition of 5-LO (5-HETE production) in intact RBL-1 cells (whole cell); type: cell-based, Rat; conditions: Table A
Description: as §1
The ability to inhibit 5-LO and CO in intact RBL-1 cells was also evaluated. RBL-1 cells were maintained in culture in minimal essential medium (Bio*Whittaker, Walkersville, Md.), containing 12.5% fetal calf serum, 10 mg/mL streptomycin, 10 I.U./mL penicillin G, […] gentamycin and 2 mM L-glutamine (Bio*Whittaker, Walkersville, Md.). Cells were collected by centrifugation, washed once in HBSS, and resuspended at a concentration of 1×10^5 cells/mL. Cells were incubated in the presence of vehicle or drug then centrifuged at 800×g for 10 minutes at 4° C. The supernatant was removed by aspiration and the cells were resuspended in 0.5 mL of HBSS. The reaction was started by the addition of 20 μg/mL of calcium ionophore A 23187 (mixed calcium and magnesium salts, Calbiochem, La Jolla Calif.) and allowed to proceed for 15 minutes, then stopped by plunging the tubes into a slush ice bath. The conversion of AA to 5-LO products was initiated by the addition of 10 μL (50 uCi) of 1-^14 C-AA. Products were isolated by acidification and extraction, followed by thin layer chromatography analysis as described above. Radioactive areas corresponding to authentic 5-LO (5-HETE) and CO (PGD2) products were quantitated by the Bioscan 2000 Imaging System and the IC50 was calculated as above.

Row | inhibition at 3 µM [1] | IC50 [2] | Isolated Enzyme % Inhib. [1] | IC50 [1] | Compound
1 | 32% | 6500 nM | – | – | Cc1cc(-c2ccc(Cl)cc2)n(-c2ccc(OCc3ccc4ccccc4n3)cc2)n1 [Cpd 11]
2 | 34% | 1500 nM | – | – | CC(C)COC(=O)CCc1cc(-c2ccc(Cl)cc2)n(-c2ccc(OCc3ccc4ccccc4n3)cc2)n1 [Cpd 10]
3 | 0% | – | – | – | O=C(O)CCc1cc(-c2ccc(OCc3ccc4ccccc4n3)cc2)n(-c2ccc(Cl)cc2)n1 [Cpd 18]
4 | – | 490 nM | 93% | 210 nM | CN(O)C(=O)CCc1cc(-c2ccc(Cl)cc2)n(-c2ccc(OCc3ccc4ccccc4n3)cc2)n1 [Cpd 7, 3-{5-(4-Chlorophenyl)-N-hydroxy-N-methyl-1-[4-(2-quinolyl)methoxyphenyl]pyrazol-3-yl}propanamide]
5 | 100% | 1000 nM | – | – | CN(O)C(=O)CCc1cc(-c2ccc(Cl)cc2)n(-c2ccc(OCc3ccc4ccccc4n3)cc2)n1 [Cpd 22]
6 | 15% | 390 nM | – | – | O=C(O)Cc1cc(-c2ccc(Cl)cc2)n(-c2ccc(OCc3ccc4ccccc4n3)cc2)n1 [Cpd 2, 2-[5-(4-Chlorophenyl)-1-(4-(2-quinolyl)methoxyphenyl)-pyrazol-3-yl]acetic acid]
7 | 0% | 5200 nM | – | – | O=C(O)CCc1cc(-c2ccc(Cl)cc2)n(-c2ccc(OCc3ccc4ccccc4n3)cc2)n1 [Cpd 15]
8 | 19% | – | – | – | COC(=O)CCc1cc(-c2ccc(OCc3ccc4ccccc4n3)cc2)n(-c2ccccc2)n1 [Cpd 17]
9 | – | 3900 nM | 8% | – | COc1ccc(-n2nc(CCC(=O)O)cc2-c2ccc(OCc3ccc4ccccc4n3)cc2)cc1 [Cpd 13]
10 | 19% | 7400 nM | – | – | CCOC(=O)CCc1cc(-c2ccc(Cl)cc2)n(-c2ccc(OCc3ccc4ccccc4n3)cc2)n1 [Cpd 12]
11 | 87% | 540 nM | – | – | COc1ccc(-n2nc(CCC(=O)N(C)O)cc2-c2ccc(OCc3ccc4ccccc4n3)cc2)cc1 [Cpd 16]
12 | 21% | 840 nM | – | – | OCCCc1cc(-c2ccc(Cl)cc2)n(-c2ccc(OCc3ccc4ccccc4n3)cc2)n1 [Cpd 20]
13 | 15% | – | – | – | CN(O)C(=O)CCc1cc(-c2ccc(OCc3ccc4ccccc4n3)cc2)n(-c2ccc(Cl)cc2)n1 [Cpd 21]
14 | 93% | 1100 nM | – | – | CN(O)C(=O)OCCc1cc(-c2ccc(Cl)cc2)n(-c2ccc(OCc3ccc4ccccc4n3)cc2)n1 [Cpd 5, 5-(4-Chlorophenyl)-3-[2-(N-hydroxy-N-methylcarbamoyloxy)]ethyl]-1-[4-(2-quinolyl)methoxyphenyl]pyrazole.0.05 Hydrate]
15 | 44% | 550 nM | – | – | ON=CCCc1cc(-c2ccc(Cl)cc2)n(-c2ccc(OCc3ccc4ccccc4n3)cc2)n1 [Cpd 9, 5-(4-Chlorophenyl)-3-oximino 1-(4-(2-quinolyl)methoxy)phenyl)-pyrazol-3-yl]propanal.0.25 Hydrate]
16 | 49% | 3200 nM | – | – | O=CCCc1cc(-c2ccc(Cl)cc2)n(-c2ccc(OCc3ccc4ccccc4n3)cc2)n1 [Cpd 8]
17 | 29% | 13400 nM | – | – | CCOC(=O)Cc1cc(-c2ccc(Cl)cc2)n(-c2ccc(OCc3ccc4ccccc4n3)cc2)n1 [Cpd 1]
18 | 55% | 5300 nM | – | – | ClCCc1cc(-c2ccc(Cl)cc2)n(-c2ccc(OCc3ccc4ccccc4n3)cc2)n1 [Cpd 4, 3-(2-Chloroethyl)-5-(4-chlorophenyl)-1-[4-(2-quinolyl)methoxyphenyl]pyrazole]
19 | – | 2000 nM | 24% | – | COc1ccc(-n2nc(CCC(=O)O)cc2-c2ccc(OCc3ccc4ccccc4n3)cc2)cc1 [Cpd 14]
20 | 31% | 1300 nM | – | – | OCCc1cc(-c2ccc(Cl)cc2)n(-c2ccc(OCc3ccc4ccccc4n3)cc2)n1 [Cpd 3]
21 | 0% | – | – | – | O=C(O)CCc1cc(-c2ccc(OCc3ccc4ccccc4n3)cc2)n(-c2ccccc2)n1 [Cpd 19]
